Among the data in PubChem BioAssay (NCI) are TGI values, retold here.

SMILES strings stand for the structures.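 Interpolation was linear, between the two tested concentrations surrounding the appropriate level; five concentrations were tested over 48 hours in 96-well plates. At the TGI there is no net growth.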

What all share (assay): growth of human tumour cells (NCI), 48 h
Assay [1] deals with UO-31 renal.
Assay [2] deals with RPMI-8226 leukemia.
The subject of assay [3] is HT29 colon.
Assay [4] has as its system SK-MEL-2 melanoma.
Assay [5] deals with LOX IMVI melanoma.
Assay [6] relates to DU-145 prostate.
Assay [7] deals with NCI/ADR-RES ovarian.
Assay [8] has as its system ACHN renal.
The subject of assay [9] is SW-620 colon.
For assay [10], the system named is SR leukemia.

Consider `CCC(=O)/C(=C\I)c1ccccc1`, for which the TGI in [1] is 4.2 µM; in assay [2], over 100 µM; in assay [3] it was 2.51 µM; in assay [4], 4.41 µM; in assay [5], 2.96 µM; in assay [6], 18.4 µM. This compound returned a TGI in assay [7] of 32.2 µM.
As for `Nc1ccc2ccc(-c3ccc[nH]3)nc2n1`, the TGI in assay [8], in assay [1], in assay [2], in [4], in [5] and in assay [9] was over 100 µM each time. This compound also yielded a TGI in [7] of over 100 µM.
`COc1ccc2c(c1)c1nn(CCN3CCCCC3)c3ccc4c(=O)n(CCN(C)C)c(=O)n2c4c13`: the TGI in assay [8] was determined as 0.243 µM; in [1], 0.354 µM; in [2], 0.0862 µM; in assay [3], 0.0963 µM; in assay [4] it was 0.271 µM; in assay [5], 0.178 µM. Moreover, the TGI in [6] was determined as 0.132 µM; in [9] it was 0.0751 µM; in assay [7] it was 1.91 µM.
`C=Cc1nc(C#N)c(N)o1`: the TGI in assay [1], in [2], in [3], in [4], in [5] and in assay [6] was over 100 µM throughout. Moreover, the TGI in assay [9] and in [7] was over 100 µM each time.
Turning to `O=C(N/N=C(/COc1ccccc1Cl)N=Cc1ccncc1)c1ccncc1`, the TGI in assay [8], in assay [2], in assay [3], in assay [4], in assay [5] and in assay [6] was over 100 µM each time. In addition, the TGI in assay [9] and in assay [7] was over 100 µM in each case.
As to `CCOC(=O)CCC(NC(=O)Cc1ccc(Oc2nc3ccccc3nc2-c2ccccc2)cc1)C(=O)OCC` (configuration not stated), the TGI in [8], in assay [1], in assay [2], in assay [3], in assay [4] and in [6] was over 100 µM in each case. Also, the TGI in [9], in assay [7] and in assay [10] was over 100 µM throughout.
Regarding `COc1c(C)c(C/C=C(\C)CC/C=C(\C)CC/C=C(\C)CCC=C(C)C)c(OC)c2ccccc12`, the TGI in assay [8], in [1], in [3], in assay [4], in assay [5] and in assay [6] was over 100 µM each time. Further, the results for the TGI in assay [9], in assay [7] and in assay [10] were over 100 µM, over 100 µM and 90.6 µM, respectively.
Consider `COC12C=CC(C=C1C#N)CC2` (configuration not stated) (tested in a mixture with another compound), for which the TGI in assay [8], in assay [1], in assay [2], in assay [3], in assay [4] and in assay [6] was over 100 µM each time. For the same compound, the TGI in assay [9], in [7] and in [10] was over 100 µM throughout.
With `O=C1CS(=O)(=O)C(c2cccc(Oc3ccccc3)c2)N1c1ccccc1` (configuration not stated), the TGI in assay [8] is 64.8 µM; in [1] it was 80.4 µM; in assay [3] it was over 100 µM; in assay [4], 31.5 µM; in assay [5], 32.7 µM; in assay [6], over 100 µM. Further, the TGI in assay [9] is over 100 µM; in assay [7], 83 µM; in assay [10], 57 µM.
In the case of `COc1cc(CCN(C)C)cc(OC)c1OC`, the TGI in assay [8], in assay [2], in [3], in assay [4], in assay [5] and in [6] was over 100 µM each time. Further, the TGI in [9], in [7] and in [10] was over 100 µM in each case.
For `CCOC(=O)C(=O)CC(=O)C1=C(c2ccccc2OC)CC(c2cccs2)=CC1=O`, the TGI in assay [8], in [1], in assay [2], in [3], in assay [4] and in [5] was over 100 µM throughout. Further, the TGI in [6], in assay [9] and in assay [7] was over 100 µM in each case.
Regarding `O=C(O)CCc1ccc2c(c1)CC1(Cc3ccccc3C1)C2`, the TGI in [8], in assay [1], in assay [2], in [3], in assay [4] and in assay [5] was over 100 µM in each case. In addition, the TGI in [7] and in [10] was over 100 µM each time.
Take `CC(=O)OCCCCn1cc(Cn2ccc(=O)n(Cc3cn(CCCCOC(C)=O)nn3)c2=O)nn1`: the TGI in assay [8], in assay [1], in [2], in assay [4], in [5] and in [6] was over 100 µM throughout. For the same compound, the TGI in assay [9] and in assay [7] was over 100 µM each time.
Take `O=C(C(Cl)=C(N1CCCCC1)N1CCCCC1)C(Cl)Cl`: the TGI in [8], in assay [1], in assay [2], in [3], in [5] and in assay [6] was over 100 µM each time. Besides, the TGI in [9], in assay [7] and in [10] was over 100 µM in each case.
Take `CCCc1nnc2sc(COc3cc(Cl)c(OCc4nn5c(CCC)nnc5s4)cc3Cl)nn12`: the TGI in assay [8], in assay [2], in assay [3], in assay [4], in assay [5] and in [6] was over 100 µM each time. The TGI in [9] was over 100 µM; in assay [7], over 100 µM; in [10], 1.77 µM.
